One block for each compound: values may come before it. Active and inactive are the calls of the source. The rule behind the calls is not given here.
Columns and labels:
NCI-H1792 [1] = test: Antiproliferative activity against human NCI-H1792 cells harboring KRAS G12C mutant assessed as reduction in cell viability at 2.5 uM incubated for 72 hrs by MTT assay; assay type: functional, cell-based
NCI-H358 = test: Antiproliferative activity against human NCI-H358 cells harboring heterozygous KRAS G12C mutant assessed as inhibition of cell growth incubated for 72 hrs by MTT assay; assay type: functional, cell-based; conditions: NCI-H358, 72 h
[2] = Cytotoxicity against human MRC5 cells assessed as inhibition of cell growth incubated for 72 hrs by MTT assay; assay type: toxicity, cell-based
Homo sapiens [3] = species on record: Homo sapiens; test: Selectivity ratio of IC50 for human MRC5 cells to IC50 for human NCI-H1792 cells harboring homozygous KRAS G12C mutant
MIA PaCa-2 = test: Antiproliferative activity against human MIA PaCa-2 cells harboring homozygous KRAS G12C mutant assessed as inhibition of cell growth incubated for 72 hrs by MTT assay; assay type: functional, cell-based; conditions: MIA PaCa-2, 72 h
SW480 = test: Antiproliferative activity against human SW480 cells harboring homozygous KRAS G12V mutant assessed as inhibition of cell growth incubated for 72 hrs by MTT assay; assay type: functional, cell-based; conditions: SW480, 72 h
[4] = Selectivity ratio of IC50 for human MRC5 cells to IC50 for human SW1573 cells harboring homozygous KRAS G12C mutant; assay type: toxicity; conditions: MRC5 cells versus SW1573 cells (homozygous KRAS G12C mutant), read-out: Ratio IC50
Homo sapiens [5] = species on record: Homo sapiens; test: Inhibition of GDP-bound human KRAS 149stop G12C mutant expressed in Escherichia coli BL21 Rosetta cells assessed as inhibition of SOS1 mediated nucleotide exchange at 250 uM measured after 24 hrs by fluorescence based analysis
BXPC-3 = test: Antiproliferative activity against human BXPC-3 cells harboring wild type KRAS assessed as inhibition of cell growth incubated for 72 hrs by MTT assay; assay type: functional, cell-based; conditions: BXPC-3, 72 h
[6] = Selectivity ratio of IC50 for human LCLC-103H cells harboring wild type KRAS to IC50 for human A549 cells harboring homozygous KRAS G12S mutant; assay type: functional
Homo sapiens [7] = species on record: Homo sapiens; test: Selectivity ratio of IC50 for human MRC5 cells to IC50 for human MIA PaCa-2 cells harboring homozygous KRAS G12C mutant
[8] = Selectivity ratio of IC50 for human BXPC-3 cells harboring wild type KRAS to IC50 for human MIA PaCa-2 cells harboring homozygous KRAS G12C mutant; assay type: functional
A549 = test: Antiproliferative activity against human A549 cells harboring homozygous KRAS G12S mutant assessed as inhibition of cell growth incubated for 72 hrs by MTT assay; assay type: functional, cell-based; conditions: A549, 72 h
NCI-H1792 [9] = test: Antiproliferative activity against human NCI-H1792 cells harboring heterozygous KRAS G12C mutant assessed as inhibition of cell growth incubated for 72 hrs by MTT assay; assay type: functional, cell-based; conditions: NCI-H1792, 72 h
[10] = Selectivity ratio of IC50 for human LCLC-103H cells harboring wild type KRAS to IC50 for human NCI-H358 cells harboring heterozygous KRAS G12C mutant; assay type: functional
SW1573 = test: Antiproliferative activity against human SW1573 cells harboring homozygous KRAS G12C mutant assessed as inhibition of cell growth incubated for 72 hrs by MTT assay; assay type: functional, cell-based; conditions: SW1573, 72 h
PANC-1 = test: Antiproliferative activity against human PANC-1 cells harboring heterozygous KRAS G12D mutant assessed as inhibition of cell growth incubated for 72 hrs by MTT assay; assay type: functional, cell-based; conditions: PANC-1, 72 h
Homo sapiens [11] = species on record: Homo sapiens; test: Selectivity ratio of IC50 for human MRC5 cells to IC50 for human NCI-H358 cells harboring heterozygous KRAS G12C mutant
NCI-H1792 [12] = test: Antiproliferative activity against human NCI-H1792 cells harboring KRAS G12C mutant assessed as cell viability at 25 uM incubated for 72 hrs by MTT assay relative to control; assay type: functional; conditions: read-out: Activity
LCLC-103H cell line [13] = test: Antiproliferative activity against human LCLC-103H cells harboring wild type KRAS assessed as inhibition of cell growth incubated for 72 hrs by MTT assay; assay type: functional, cell-based
Homo sapiens [14] = species on record: Homo sapiens; test: Inhibition of GDP-bound human KRAS 149stop G12C mutant expressed in Escherichia coli BL21 Rosetta cells assessed as inhibition of EDTA mediated nucleotide exchange at 250 uM measured after 24 hrs by fluorescence based analysis
[15] = Selectivity ratio of IC50 for human BXPC-3 cells harboring wild type KRAS to IC50 for human PANC-1 cells harboring heterozygous KRAS G12D mutant; assay type: functional
[16] = Selectivity ratio of IC50 for human LCLC-103H cells harboring wild type KRAS to IC50 for human SW1573 cells harboring homozygous KRAS G12C mutant; assay type: functional
[17] = Selectivity ratio of IC50 for human LCLC-103H cells harboring wild type KRAS to IC50 for human NCI-H1792 cells harboring […] KRAS G12C mutant; assay type: functional
[18] = Cytotoxicity against human CCD-986Sk cells assessed as inhibition of cell growth incubated for 72 hrs by MTT assay; assay type: toxicity, cell-based
[19] = system: GTPase KRas (Homo sapiens), P01116 [G12C]; test: Covalent binding affinity to GDP-bound human KRAS-4B G12C mutant (1 to 169 residues) expressed in Escherichia coli BL21 Rosetta cells at 200 uM measured after 1 hr by Ellman's assay
[20] = Volume of distribution in NOD-SCID mouse at 15 mg/kg, ip administered as single dose and measured upto 48 hrs by HPLC/MS analysis; assay type: ADME, organism-based; conditions: in vivo
[21] = Tmax in NOD-SCID mouse at 15 mg/kg, ip administered as single dose and measured upto 48 hrs by HPLC/MS analysis; assay type: ADME, organism-based; conditions: in vivo
NCI-H1792 [22] = test: (§1) Antitumor activity against human NCI-H1792 cells harboring KRAS G12C mutant xenografted in immunodeficient NOD-SCID mouse assessed as reduction in tumor growth at 5 to 30 mg/kg, ip administered for 5 times at 5 mg/kg in first week followed by administration at 20 mg/kg 5 times in second week and further administered 30 mg/kg 3 times in third week measured 17 days post treatment initiation and 35 days post tumor transplantation by digital caliper based analysis relative to control; assay type: functional; design: scale not given: the % may be the effect or the level left; conditions: dose 5-30 mg/kg, time 17 day
[23] = Cmax in NOD-SCID mouse at 15 mg/kg, ip administered as single dose and measured upto 48 hrs by HPLC/MS analysis; assay type: ADME, organism-based; design: time < 48 hrs, dose 15 mg/kg, route ip; conditions: in vivo
[24] = AUCt in NOD-SCID mouse at 15 mg/kg, ip administered as single dose and measured upto 48 hrs by HPLC/MS analysis; assay type: ADME, organism-based; design: dose 15 mg/kg, time < 48 hrs, route ip; conditions: in vivo
[25] = Clearance in NOD-SCID mouse at 15 mg/kg, ip administered as single dose and measured upto 48 hrs by HPLC/MS analysis; assay type: ADME, organism-based; conditions: in vivo
[26] = system: GTPase KRas (Homo sapiens), P01116 [G12C]; test: Covalent binding affinity to GDP-bound human KRAS-4B G12C mutant (1 to 169 residues) expressed in Escherichia coli BL21 Rosetta cells at 200 uM measured after 4 hrs by Ellman's assay
[27] = system: GTPase KRas (Homo sapiens), P01116 [G12C]; test: Covalent binding affinity to GDP-bound human KRAS-4B G12C mutant (1 to 169 residues) expressed in Escherichia coli BL21 Rosetta cells assessed as labelling on Cys12 residue by intact LCMS analysis
[28] = system: GTPase KRas (Homo sapiens), P01116 [G12C]; test: Covalent binding affinity to GDP-bound human KRAS-4B G12C mutant (1 to 169 residues) expressed in Escherichia coli BL21 Rosetta cells assessed as reduction in free Cys residues at 200 uM measured after 1 hr by Ellman's assay
[29] = (§2) Toxicity in immunodeficient NOD-SCID mouse xenografted with human LCLC-103H cells harboring wild type KRAS assessed as body weight at 5 to 30 mg/kg, ip administered for 5 times at 5 mg/kg in first week followed by administration at 20 mg/kg 5 times in second week and further administered 30 mg/kg 3 times in third week measured 17 days post treatment initiation and 35 days post tumor transplantation (reference value: 2.6 g); assay type: organism-based; conditions: in vivo, 408 h, dose 5-30 mg/kg, time 17 day
LCLC-103H cell line [30] = test: as §1, with “LCLC-103H” for “NCI-H1792”, “harboring wild type” for “harboring”, “KRAS” for “KRAS G12C mutant”, “as” for “as reduction in”, “volume” for “growth”, “analysis” for “analysis relative to control”; assay type: functional; conditions: dose 5-30 mg/kg, time 17 day
[31] = as §2, with “NCI-H1792” for “LCLC-103H”, “harboring” for “harboring wild type”, “KRAS G12C mutant” for “KRAS”, “6.6” for “2.6”; assay type: organism-based; conditions: in vivo, 408 h, dose 5-30 mg/kg, time 17 day
[32] = system: GTPase KRas (Homo sapiens), P01116 [G12C]; test: Binding affinity to Cys118 residue of GDP bound human KRAS-4B G12C mutant (1 to 169 residues) expressed in Escherichia coli BL21 Rosetta cells at 150 to 500 uM measured after 96 hrs by 1H-15N HSQC NMR spectral analysis; conditions: dose 150-500 µM
[33] = system: GTPase KRas (Homo sapiens), P01116 [G12C]; test: Binding affinity to Cys51 residue of GDP bound human KRAS-4B G12C mutant (1 to 169 residues) expressed in Escherichia coli BL21 Rosetta cells at 150 to 500 uM measured after 96 hrs by 1H-15N HSQC NMR spectral analysis; conditions: dose 150-500 µM
[34] = system: GTPase KRas (Homo sapiens), P01116 [G12C]; test: Binding affinity to Cys80 residue of GDP bound human KRAS-4B G12C mutant (1 to 169 residues) expressed in Escherichia coli BL21 Rosetta cells at 150 to 500 uM measured after 96 hrs by 1H-15N HSQC NMR spectral analysis; conditions: dose 150-500 µM
[35] = system: GTPase KRas (Homo sapiens), P01116 [G12C]; test: Binding affinity to Cys12 residue of GDP bound human KRAS-4B G12C mutant (1 to 169 residues) expressed in Escherichia coli BL21 Rosetta cells at 150 to 500 uM measured after 96 hrs by 1H-15N HSQC NMR spectral analysis; conditions: dose 150-500 µM
[36] = Antiproliferative activity against human HCA-7 cells harboring wild type KRAS assessed as inhibition of cell growth incubated for 72 hrs by MTT assay; assay type: functional, cell-based, HCA7; conditions: HCA-7, 72 h
[37] = Cytotoxicity against HUVEC cells immortalized with TERT assessed as inhibition of cell growth incubated for 72 hrs by MTT assay; assay type: toxicity, cell-based; conditions: human
[38] = Half life in NOD-SCID mouse at 15 mg/kg, ip administered as single dose and measured upto 48 hrs by HPLC/MS analysis; assay type: ADME, organism-based; conditions: in vivo
[39] = as §2, with “NCI-H1792” for “LCLC-103H”, “harboring” for “harboring wild type”, “KRAS G12C mutant” for “KRAS”, “20” for “17”, “38” for “35”, “6.6” for “2.6”; assay type: organism-based; conditions: in vivo, 480 h, dose 5-30 mg/kg, time 20 day

- IC50 (NCI-H358): 6.9 µM
- Ratio IC50 (Homo sapiens [3]): 2.7
- IC50 (MIA PaCa-2): 5.8 µM
- IC50 (SW480): 27.8 µM
- IC50 (BXPC-3): 36.8 µM
- Ratio IC50 (Homo sapiens [7]): 13
- IC50 (A549): 35.2 µM
- IC50 (NCI-H1792 [9]): 27.9 µM
- IC50 (SW1573): 25.9 µM
- IC50 (PANC-1): 58.2 µM
- Ratio IC50 (Homo sapiens [11]): 11
Structure (SMILES): C=CC(=O)N1CC(N2CCN(C(=O)CNc3cc(C4(C)CC4)c(Cl)cc3O)CC2)C1
- Activity (NCI-H1792 [1]): Active
- IC50 at 72 h [2]: 75.3 µM
- selectivity ratio [4]: 2.9
- inhibition (Homo sapiens [5]): Active
- Ratio IC50 [6]: 1.2
- Ratio IC50 [8]: 6.4
- Ratio IC50 [10]: 6
- viability at 25 µM (NCI-H1792 [12]): < 50%
- IC50 (LCLC-103H cell line [13]): 41.5 µM
- inhibition (Homo sapiens [14]): Active
- Ratio IC50 [15]: 0.6
- Ratio IC50 [16]: 1.6
- Ratio IC50 [17]: 1.5

- IC50 (NCI-H358): 16.9 µM
- Activity [19]: Active
- Vd [20]: 12096 mL
- IC50 (MIA PaCa-2): 13.7 µM
- IC50 (SW480): 14.8 µM
- Tmax [21]: 0.25 h
- IC50 (BXPC-3): 13.1 µM
- Cmax [23]: 337 ng/mL
- AUC(0-t) at 48 h [24]: 169 ng·h/mL
- IC50 (A549): 44.4 µM
- CL/F [25]: 31.6 mL/min
- Activity [26]: 50%
- Activity [27]: Active
- Activity [28]: Active
- IC50 (NCI-H1792 [9]): 11 µM
- IC50 (SW1573): 23.6 µM
- Activity [32]: inactive
- Activity [33]: inactive
- IC50 (PANC-1): 38 µM
- Activity [34]: inactive
- Activity [35]: Active
- half-life [38]: 4.4 h
Structure (SMILES): O=C1Nc2cc(Cl)cc(Cl)c2C1=O
- IC50 at 72 h [18]: 42.7 µM
- Activity (NCI-H1792 [1]): Active
- IC50 at 72 h [2]: 47.9 µM
- Activity (NCI-H1792 [22]): 35.8%
- Activity [29]: 2.8 g
- Activity (LCLC-103H cell line [30]): 13.3 mm3
- Activity [31]: 6.9 g
- viability at 25 µM (NCI-H1792 [12]): < 50%
- IC50 (LCLC-103H cell line [13]): 30 µM
- IC50 [36]: 9.8 µM
- IC50 at 72 h [37]: 24.4 µM
- Activity [39]: 9.1 g

Source: ChEMBL document CHEMBL5335777 (Eur J Med Chem, 2023)
